# Reference: PubChem BioAssay (NCI)
# Where “and” joins values, the source holds several entries; their conditions need not be identical. Identical values can stand only once.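 Test compounds were applied to cells in 96-well plates for 48 hours at 5 doses. GI50 marks 50% less growth. TGI: concentration producing complete growth inhibition.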
# Tests used:
# Assay in all cases: NCI tumour cell line growth inhibition, 48 h
# A498 renal = tested on: A498 renal
# A549 NSCLC = tested on: A549 NSCLC
# BT-549 breast = tested on: BT-549 breast
# HOP-62 NSCLC = tested on: HOP-62 NSCLC
# HS 578T breast = tested on: HS 578T breast
# NCI-H522 lung = tested on: NCI-H522 lung
# OVCAR-5 ovarian = tested on: OVCAR-5 ovarian
# OVCAR-8 ovarian = tested on: OVCAR-8 ovarian
# SK-MEL-5 melanoma = tested on: SK-MEL-5 melanoma
# T-47D breast = tested on: T-47D breast
Structure (SMILES),GI50 (A498 renal),TGI (A498 renal),GI50 (A549 NSCLC),TGI (A549 NSCLC),GI50 (BT-549 breast),TGI (BT-549 breast),GI50 (HOP-62 NSCLC),TGI (HOP-62 NSCLC),GI50 (HS 578T breast),TGI (HS 578T breast),GI50 (NCI-H522 lung),TGI (NCI-H522 lung),GI50 (OVCAR-5 ovarian),TGI (OVCAR-5 ovarian),GI50 (OVCAR-8 ovarian),TGI (OVCAR-8 ovarian),GI50 (SK-MEL-5 melanoma),TGI (SK-MEL-5 melanoma),GI50 (T-47D breast),TGI (T-47D breast)
Cc1ccc2c(C(C[N+](=O)[O-])c3ccccc3)c(-c3ccccc3)[nH]c2c1 (stereo not given),24.9 µM,> 95 µM,18 µM,> 95 µM,34 µM,> 95 µM,34.2 µM,> 95 µM,16.8 µM,94.3 µM,3.17 µM,> 95 µM,85.3 µM,> 95 µM,33 µM,> 95 µM,50.6 µM,> 95 µM,26.4 µM,> 95 µM
CCCc1nn(C)c2c(=O)[nH]c(-c3cc(S(=O)(=O)N4CCN(C)CC4)ccc3OCC)nc12,25.6 µM,> 100 µM,> 100 µM,> 100 µM,> 100 µM,> 100 µM,> 100 µM,> 100 µM,21.6 µM,> 100 µM,> 100 µM,> 100 µM,> 100 µM,> 100 µM,> 100 µM,> 100 µM,> 100 µM,> 100 µM,> 100 µM,> 100 µM
CC1(C)N=C(N)N=C(N)N1c1ccc(CNC(=O)Nc2ccc(S(=O)(=O)F)c(Cl)c2)c(Cl)c1,9.5 µM,> 100 µM,0.56 µM,> 100 µM,8.51 µM,> 100 µM,9.81 µM,> 100 µM,21.8 µM,> 100 µM,0.624 µM,40.2 µM,0.332 µM,> 100 µM,2.08 µM,> 100 µM,0.88 µM,> 74.7 µM,11.6 µM,> 100 µM
CN1C(=O)CCC(N2C(=O)c3cccc(NCCOCCOCCNC(=O)c4cc5c(o4)C(=O)c4ccccc4C5=O)c3C2=O)C1=O (stereo not given),1.71 µM,3.2 µM,1.99 µM,4.49 µM,1.38 µM,2.7 µM,1.97 µM,3.43 µM,2.7 µM,7.46 µM,1.96 µM,5.08 µM,1.76 µM,3.17 µM,2.45 µM,14.7 µM,0.242 µM,0.652 µM,2.88 µM,10.3 µM
COc1ccc(Br)cc1NC(=O)Nc1cccc2c1ccn2Cc1ccnc(N)c1,2.41 µM and 4.12 µM,11.6 µM and > 10 µM,5.64 µM and > 10 µM,22.7 µM and > 10 µM,11.7 µM and > 10 µM,38.6 µM and > 10 µM,4.86 µM and > 10 µM,11.1 µM and > 10 µM,1.84 µM and 3.81 µM,16.2 µM and > 10 µM,1.89 µM and 2.45 µM,4.35 µM and > 10 µM,12.7 µM and > 10 µM,58.4 µM and > 10 µM,5.94 µM and > 10 µM,23.3 µM and > 10 µM,10.2 µM and 5.28 µM,23 µM and > 10 µM,3.3 µM and 3.9 µM,18.4 µM and > 10 µM
CCC1=C(c2ccc(OC)cc2)C(C)(C)Oc2c1ccc(O)c2CN1CCCC1,1.23 µM,7.95 µM,3.63 µM,26.8 µM,2.29 µM,12.7 µM,1.99 µM,7.03 µM,3.44 µM,35.1 µM,1.97 µM,3.96 µM,4.1 µM,29.4 µM,2.11 µM,4.94 µM,1.3 µM,2.57 µM,1.45 µM,4.64 µM
